Test results from ChEMBL document CHEMBL1156349, “Junceol A, a new sesquiterpenoid from the sea pen Virgularia juncea” (2001).
Converted amounts (≈) assume the structure as drawn.

Each molecule was assayed on P388 (assay: Cytotoxicity against mouse P388 cells by MTT assay). Conditions: read-out: ED50 (the source's name).
Assay type: functional
For C=C1CC[C@H](C(C)C)[C@@H]2[C@H]1[C@@H]1CC(=C)[C@@H](O)CC[C@](C)(O)[C@H]2O1 [CLADIELLISIN], the EC50 was 2 µg/mL (≈ 6.24 µM). Work on CC(=O)OC(C)(C)[C@H]1C=C2[C@@H](C)CC[C@@H](O)[C@]2(C)CC1 [JUNCEOL A] yielded an EC50 of 5.1 µg/mL (≈ 18.2 µM). In the case of C=C1CC[C@H](C(C)C)[C@@H]2[C@H]1[C@H]1C[C@](C)(O)[C@@H](O)CC[C@@](C)(O)[C@@H]2O1 [SCLEROPHYTIN A], the EC50 is reported as 2.3 µg/mL (≈ 6.79 µM).
